Values quoted from earlier work in patent publication US5525603A, “Compositions, methods and kits for potentiating antitumor effect and for treating tumor” (priority 1991, dated 1996).

Columns and labels:
[1] = in combination with 5-FU or 5-FU derivative
[2] = tested on: oral cavity, gastrointestinal tissue; settings: prolonged presence in the living body, continuous intravenous infusion of 5-FU alone

SMILES | effect on antitumor effect of 5-FU or 5-FU derivative [1] | inhibition of inflammation caused by 5-FU or 5-FU derivative [1] | disorder (inflammation) in the oral cavity, gastrointestinal tissue and the like [2]
O=C(O)c1nc(=O)[nH]c(=O)[nH]1 [oxonic acid] | reduces the antitumor effect of 5-FU or 5-FU derivative | can inhibit the occurrence of inflammation caused by 5-FU or 5-FU derivative | –
O=c1[nH]cc(F)c(=O)[nH]1 [5-FU, 5-fluorouracil] | – | – | likely to cause a disorder (inflammation) in the oral cavity, gastrointestinal tissue and the like
